*1 amine or outer side, *2 acyl side, *3 side chain or, on linkers, in order; H or OH if unused. Where a SMILES comes first, the peptide text is derived from it. [ ]: non-standard residue; d: D form. The star is where a group is joined. γGlu = O=C(O)[C@H](CCC(=O)[*:2])N[*:1]; dPhg = N[C@@H](C(=O)O)c1ccccc1; Bn = c1ccc(C*)cc1
Columns and labels:
[1] = biological target: T1, GST A1-1 (Homo sapiens, UniProt P08263); settings: as described in the PCT application WO 95/09866; cited from earlier work
T1 sequence (P08263 1-222): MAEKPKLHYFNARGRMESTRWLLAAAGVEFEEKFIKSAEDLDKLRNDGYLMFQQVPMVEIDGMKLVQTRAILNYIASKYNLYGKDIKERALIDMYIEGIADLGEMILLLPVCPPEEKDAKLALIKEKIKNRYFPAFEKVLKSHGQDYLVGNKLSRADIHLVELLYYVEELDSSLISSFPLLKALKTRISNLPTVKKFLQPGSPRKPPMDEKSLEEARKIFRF

[2] = biological target: GST P1-1 (Homo sapiens, UniProt P09211); settings: cited from earlier work
[3] = biological target: T2, MRP system of human erythrocytes (Homo sapiens, UniProt P33527); experiment: Stimulation of basal Mg+2 stimulated ATPase activity in erythrocyte membranes; type: biochemical; settings: 37° C., 30 minutes; for Km / Vmax of ATPase stimulation: average of three determinations
T2 construct: from tissue; host or cells: human erythrocytes (membranes; inside-out vesicles)
Protocol: (§1) Two indirect measures of interaction of test compounds in the MRP system of human erythrocytes were used. The first was stimulation of basal Mg^+2 stimulated ATPase activity, the other was inhibition of transport of tritiated dinitrophenyl-S-glutathione.
In the first method, the method of Bartosz, M. et al, Biochem Mol Biol Int (1994) 34:521-529 was used. Briefly, the compounds were added to erythrocyte membranes in a medium containing 100 mM Tris HCl, […], 10 mM MgCl2, 1 mM ATP, 0.1 mM ouabain and 1 mM EGTA with an incubation at 37° C. for 30 minutes. Stimulation of ATPase activity was measured as described.

[4] = biological target: T2, MRP system of human erythrocytes; experiment: Inhibition of uptake of tritiated DNP-glutathione conjugate by inside-out vesicles of human erythrocytes; type: biochemical; settings: for inhibition of labeled conjugate (DNP-GSH) uptake: compound 1 μM, labeled DNP-GSH 5 μM, 15 minutes at 37° C., mean of three trials; for Interaction with MRP pump (reduction of transport of radiolabeled GSH analog): summary in words
Protocol: as §1
In the alternative method, the uptake of tritiated DNP-glutathione conjugate by inside-out vesicles of human erythrocytes was determined as described in Akerboom, T. P. M. et al, Biochim Biophys Acta (1992) 1103.:115-119. The labeled DNP-GSH concentration was 5 μM and the compounds were added at a final concentration of 1 μM; uptake of labeled DNP-GSH was measured after 15 minutes incubation at 37° C.

T2 sequence (P33527 whole entry): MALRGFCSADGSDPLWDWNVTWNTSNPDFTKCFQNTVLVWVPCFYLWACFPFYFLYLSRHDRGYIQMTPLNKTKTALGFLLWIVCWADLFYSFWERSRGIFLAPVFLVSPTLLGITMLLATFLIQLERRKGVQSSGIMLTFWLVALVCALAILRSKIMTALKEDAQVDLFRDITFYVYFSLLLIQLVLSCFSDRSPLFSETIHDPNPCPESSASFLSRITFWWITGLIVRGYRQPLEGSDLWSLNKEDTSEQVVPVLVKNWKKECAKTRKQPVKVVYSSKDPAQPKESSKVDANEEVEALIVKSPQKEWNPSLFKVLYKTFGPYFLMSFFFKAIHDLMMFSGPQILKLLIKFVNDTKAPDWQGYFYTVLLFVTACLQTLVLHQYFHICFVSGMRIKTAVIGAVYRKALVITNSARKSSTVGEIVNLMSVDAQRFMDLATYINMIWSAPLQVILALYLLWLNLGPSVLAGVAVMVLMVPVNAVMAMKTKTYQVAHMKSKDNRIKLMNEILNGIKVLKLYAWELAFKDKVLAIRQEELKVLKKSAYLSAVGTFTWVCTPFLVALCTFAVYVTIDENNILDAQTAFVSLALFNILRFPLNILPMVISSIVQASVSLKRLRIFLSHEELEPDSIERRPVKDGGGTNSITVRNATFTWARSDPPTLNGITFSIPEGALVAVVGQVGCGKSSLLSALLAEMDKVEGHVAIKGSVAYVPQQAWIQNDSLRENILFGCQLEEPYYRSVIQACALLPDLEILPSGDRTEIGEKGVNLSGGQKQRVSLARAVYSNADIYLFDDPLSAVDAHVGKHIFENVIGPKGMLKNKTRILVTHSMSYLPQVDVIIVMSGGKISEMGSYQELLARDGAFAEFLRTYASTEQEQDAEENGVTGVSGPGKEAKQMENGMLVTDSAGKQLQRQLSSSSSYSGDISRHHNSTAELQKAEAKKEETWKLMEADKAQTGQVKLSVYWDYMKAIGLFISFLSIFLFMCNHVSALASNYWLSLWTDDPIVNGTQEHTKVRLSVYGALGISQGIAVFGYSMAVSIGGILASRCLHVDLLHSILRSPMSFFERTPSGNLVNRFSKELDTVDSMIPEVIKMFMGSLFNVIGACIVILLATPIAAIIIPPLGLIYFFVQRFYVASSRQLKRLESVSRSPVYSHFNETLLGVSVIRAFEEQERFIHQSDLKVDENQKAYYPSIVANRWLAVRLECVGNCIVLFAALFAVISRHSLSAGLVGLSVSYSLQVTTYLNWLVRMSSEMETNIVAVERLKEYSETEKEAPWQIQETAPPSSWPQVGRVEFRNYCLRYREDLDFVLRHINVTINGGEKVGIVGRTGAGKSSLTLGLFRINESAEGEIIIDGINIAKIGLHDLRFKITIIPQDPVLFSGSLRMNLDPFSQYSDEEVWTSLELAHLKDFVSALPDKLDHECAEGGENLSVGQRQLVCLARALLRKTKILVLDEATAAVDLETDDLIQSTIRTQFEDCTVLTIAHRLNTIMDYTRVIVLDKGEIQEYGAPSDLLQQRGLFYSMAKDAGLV
GST P1-1, sequence (P09211 2-210 limits assumed): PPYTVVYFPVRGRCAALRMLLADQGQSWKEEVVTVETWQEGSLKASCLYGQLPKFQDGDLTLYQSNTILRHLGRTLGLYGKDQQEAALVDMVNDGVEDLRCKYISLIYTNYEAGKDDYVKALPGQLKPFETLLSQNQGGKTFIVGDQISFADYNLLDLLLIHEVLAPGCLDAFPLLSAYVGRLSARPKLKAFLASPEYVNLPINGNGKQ

N[C@@H](CCC(=O)N[C@@H](CS(=O)(=O)CCOP(=O)(N(CCCl)CCCl)N(CCCl)CCCl)C(=O)N[C@@H](C(=O)O)c1ccccc1)C(=O)O [TER 286]
Susceptibility to cleavage by GST A1-1 [1]: particularly susceptible to cleavage
Susceptibility to cleavage by GST P1-1 ([2]; as described in the PCT application WO 95/09866): particularly susceptible to cleavage
Isoenzyme specificity of prodrug ([2]; cells having GST complements high in the P1-1 isoform): has the desired isoenzyme specificity

N[C@@H](CCC(=O)N[C@@H](CSCc1ccccc1)C(=O)NCCC(=O)O)C(=O)O [TER 106, γGlu-C(Bz)-βAla]
Km [3]: 1820 µM
Vmax of ATPase stimulation [3]: 209.6 mM/mg protein per hr
inhibition of labeled conjugate (DNP-GSH) uptake [4]: 66.2%
Interaction with MRP pump (reduction of transport of radiolabeled GSH analog) [4]: interact with MRP so as to reduce the transport of radiolabeled GSH analog

N[C@@H](CCC(=O)N[C@@H](CSCc1ccccc1)C(=O)N[C@@H](C(=O)O)c1ccccc1)C(=O)O [TER 117, γGlu-C(Bz)-.o slashed.Gly] (γGlu-Cys(Bn)-[dPhg]-OH)
Stimulation of ATPase activity [3]: did not stimulate ATPase activity
inhibition of labeled conjugate (DNP-GSH) uptake [4]: 0.2%
Interaction with MRP pump (reduction of transport of radiolabeled GSH analog) [4]: does not

N[C@@H](CCC(=O)N[C@@H](CSCc1ccccc1)C(=O)NCC(=O)O)C(=O)O [TER 222, γGlu-C(Bz)-Gly]
Km [3]: 385 µM
Vmax of ATPase stimulation [3]: 125.9 mM/mg protein per hr
inhibition of labeled conjugate (DNP-GSH) uptake [4]: 62.5%
Interaction with MRP pump (reduction of transport of radiolabeled GSH analog) [4]: interact with MRP so as to reduce the transport of radiolabeled GSH analog
